Results: patent publication US9717748B2, “Compositions and methods for treating an infection” (CMPD LICENSING, LLC, priority 2015, dated 2017)
Read-outs that look alike come from different tables or passages of the source.

Key:
Providencia rettgeri = test: Expected efficacy of antibiotic agents; conditions: Gram: neg
[1] = test system: Methicillin resistant staphaureus (MRSA); test: Expected efficacy of antibiotic agents; conditions: Gram: pos
Enterococcus faecium = test: Expected efficacy of antibiotic agents; conditions: Gram: pos
Serratia marcescens = test: Expected efficacy of antibiotic agents; conditions: Gram: neg
Bordetella pertussis = test: Expected efficacy of antibiotic agents; conditions: Gram: neg
[2] = test system: Haemophilus parainfluenzae; test: Expected efficacy of antibiotic agents; conditions: Gram: neg
Mycoplasma pneumoniae = test: Expected efficacy of antibiotic agents; conditions: Gram: n/a
Enterococcus faecalis = test: Expected efficacy of antibiotic agents; conditions: Gram: pos
Diphtheroids = test: Expected efficacy of antibiotic agents; conditions: Gram: pos
[3] = test system: Viridans group streptococci; test: Expected efficacy of antibiotic agents; conditions: Gram: pos
Proteus vulgaris = test: Expected efficacy of antibiotic agents; conditions: Gram: neg
Chlamydia trachomatis = test: Expected efficacy of antibiotic agents; conditions: Gram: n/a
Moraxella catarrhalis = test: Expected efficacy of antibiotic agents; conditions: Gram: neg
Clostridium difficile = test: Expected efficacy of antibiotic agents; conditions: Gram: anaer
[4] = test system: Corynebacterium urealyticum; test: Expected efficacy of antibiotic agents; conditions: Gram: pos
Enterobacter cloacae = test: Expected efficacy of antibiotic agents; conditions: Gram: neg
Peptostreptococcus = test: Expected efficacy of antibiotic agents; conditions: Gram: pos
Streptococcus pyogenes = test: Expected efficacy of antibiotic agents; conditions: Gram: pos
[5] = test system: Klebsiella (Calymmato-bacterium) granulomatis; test: Expected efficacy of antibiotic agents; conditions: Gram: neg
Streptococcus pneumoniae = test: Expected efficacy of antibiotic agents; conditions: Gram: pos
Providencia stuartii = test: Expected efficacy of antibiotic agents; conditions: Gram: neg
Pseudomonas aeruginosa = test: Expected efficacy of antibiotic agents; conditions: Gram: neg
Streptococcus agalactiae = test: Expected efficacy of antibiotic agents; conditions: Gram: pos
Vibrio cholerae = test: Expected efficacy of antibiotic agents; conditions: Gram: neg
Enterobacter sakazakii = test: Expected efficacy of antibiotic agents; conditions: Gram: neg
Bacteroides fragilis = test: Expected efficacy of antibiotic agents; conditions: Gram: anaer
Chlamydia pneumoniae = test: Expected efficacy of antibiotic agents; conditions: Gram: n/a
Klebsiella pneumoniae = test: Expected efficacy of antibiotic agents; conditions: Gram: neg
[6] = test system: Staphylococcus epidermidis; test: Expected efficacy of antibiotic agents; conditions: Gram: pos
[7] = test system: Staphylococcus aureus (MSSA); test: Expected efficacy of antibiotic agents; conditions: Gram: pos
Neisseria meningitidis = test: Expected efficacy of antibiotic agents; conditions: Gram: neg
Corynebacterium jeikeium = test: Expected efficacy of antibiotic agents; conditions: Gram: pos
Proteus mirabilis = test: Expected efficacy of antibiotic agents; conditions: Gram: neg
Neisseria gonorrhoeae = test: Expected efficacy of antibiotic agents; conditions: Gram: neg
Pseudomonas fluorescens = test: Expected efficacy of antibiotic agents; conditions: Gram: neg
Acinetobacter baumannii = test: Expected efficacy of antibiotic agents; conditions: Gram: neg
Haemophilus ducreyi = test: Expected efficacy of antibiotic agents; conditions: Gram: neg
[8] = test system: Acinetobacter calcoaceticus; test: Expected efficacy of antibiotic agents; conditions: Gram: neg
Klebsiella oxytoca = test: Expected efficacy of antibiotic agents; conditions: Gram: neg
Citrobacter freundii = test: Expected efficacy of antibiotic agents; conditions: Gram: neg
Acinetobacter lwoffii = test: Expected efficacy of antibiotic agents; conditions: Gram: neg
Enterobacter aerogenes = test: Expected efficacy of antibiotic agents; conditions: Gram: neg
Bartonella bacilliformis = test: Expected efficacy of antibiotic agents; conditions: Gram: neg
Shigella boydii = test: Expected efficacy of antibiotic agents; conditions: Gram: neg
Escherichia coli = test: Expected efficacy of antibiotic agents; conditions: Gram: neg
Haemophilus influenzae = test: Expected efficacy of antibiotic agents; conditions: Gram: neg
Salmonella typhi = test: Expected efficacy of antibiotic agents; conditions: Gram: neg
Shigella sonnei = test: Expected efficacy of antibiotic agents; conditions: Gram: neg
Campylobacter jejuni = test: Expected efficacy of antibiotic agents; conditions: Gram: neg
Morganella morganii = test: Expected efficacy of antibiotic agents; conditions: Gram: neg
Citrobacter diversus = test: Expected efficacy of antibiotic agents; conditions: Gram: neg
Shigella flexneri = test: Expected efficacy of antibiotic agents; conditions: Gram: neg
Shigella dysenteriae = test: Expected efficacy of antibiotic agents; conditions: Gram: neg

Colistimethate
Expected efficacy against Providencia rettgeri (Providencia rettgeri): no
Expected efficacy against Methicillin resistant staphaureus (MRSA) [1]: no
Expected efficacy against Enterococcus faecium (Enterococcus faecium): no
Expected efficacy against Serratia marcescens (Serratia marcescens): no
Expected efficacy against Legionella pneumophila (Legionella pneumophila; Gram: neg): no
Expected efficacy against Bordetella pertussis (Bordetella pertussis): no
Expected efficacy against Haemophilus parainfluenzae [2]: no
Expected efficacy against Chlamydia psittaci (Chlamydia psittaci; Gram: n/a): no
Expected efficacy against Mycoplasma pneumoniae (Mycoplasma pneumoniae): no
Expected efficacy against Enterococcus faecalis (Enterococcus faecalis): no
Expected efficacy against Diphtheroids (Diphtheroids): no
Expected efficacy against Viridans group streptococci [3]: no
Expected efficacy against Proteus vulgaris (Proteus vulgaris): no
Expected efficacy against Chlamydia trachomatis (Chlamydia trachomatis): no
Expected efficacy against Moraxella catarrhalis (Moraxella catarrhalis): no
Expected efficacy against Clostridium difficile (Clostridium difficile): no
Expected efficacy against Corynebacterium urealyticum [4]: no
Expected efficacy against Enterobacter cloacae (Enterobacter cloacae): yes
Expected efficacy against Peptostreptococcus (Peptostreptococcus): no
Expected efficacy against Streptococcus pyogenes (Streptococcus pyogenes): no
Expected efficacy against Klebsiella (Calymmato-bacterium) granulomatis [5]: yes
Expected efficacy against Streptococcus pneumoniae (Streptococcus pneumoniae): no
Expected efficacy against Providencia stuartii (Providencia stuartii): no
Expected efficacy against Pseudomonas aeruginosa (Pseudomonas aeruginosa): yes
Expected efficacy against Streptococcus agalactiae (Streptococcus agalactiae): no
Expected efficacy against Vibrio cholerae (Vibrio cholerae): no
Expected efficacy against Enterobacter sakazakii (Enterobacter sakazakii): yes
Expected efficacy against Bacteroides fragilis (Bacteroides fragilis): no
Expected efficacy against Brucella species (Brucella species; Gram: neg): no
Expected efficacy against Chlamydia pneumoniae (Chlamydia pneumoniae): no
Expected efficacy against Klebsiella pneumoniae (Klebsiella pneumoniae): yes
Expected efficacy against Staphylococcus epidermidis [6]: no
Expected efficacy against Staphylococcus aureus (MSSA) [7]: yes
Expected efficacy against Neisseria meningitidis (Neisseria meningitidis): no
Expected efficacy against Corynebacterium jeikeium (Corynebacterium jeikeium): no
Expected efficacy against Proteus mirabilis (Proteus mirabilis): no
Expected efficacy against Neisseria gonorrhoeae (Neisseria gonorrhoeae): no

C/C(=C\C(=O)OCCCCCCCCC(=O)O)C[C@@H]1OC[C@H](C[C@@H]2O[C@H]2[C@@H](C)[C@H](C)O)[C@@H](O)[C@H]1O [Bactroban]
Expected efficacy against Providencia rettgeri (Providencia rettgeri): no
Expected efficacy against Pseudomonas fluorescens (Pseudomonas fluorescens): no
Expected efficacy against Serratia marcescens (Serratia marcescens): no
Expected efficacy against Legionella pneumophila (Legionella pneumophila; Gram: neg): no
Expected efficacy against Bordetella pertussis (Bordetella pertussis): no
Expected efficacy against Acinetobacter baumannii (Acinetobacter baumannii): no
Expected efficacy against Francisella tularensis (Francisella tularensis; Gram: neg): no
Expected efficacy against Haemophilus ducreyi (Haemophilus ducreyi): no
Expected efficacy against Acinetobacter calcoaceticus [8]: no
Expected efficacy against Klebsiella oxytoca (Klebsiella oxytoca): no
Expected efficacy against Proteus vulgaris (Proteus vulgaris): no
Expected efficacy against Rickettsiae (Rickettsiae; Gram: neg): no
Expected efficacy against Citrobacter freundii (Citrobacter freundii): no
Expected efficacy against Moraxella catarrhalis (Moraxella catarrhalis): no
Expected efficacy against Acinetobacter lwoffii (Acinetobacter lwoffii): no
Expected efficacy against Corynebacterium urealyticum [4]: no
Expected efficacy against Enterobacter aerogenes (Enterobacter aerogenes): no
Expected efficacy against Enterobacter cloacae (Enterobacter cloacae): no
Expected efficacy against Bartonella bacilliformis (Bartonella bacilliformis): no
Expected efficacy against Shigella boydii (Shigella boydii): no
Expected efficacy against Escherichia coli (Escherichia coli): no
Expected efficacy against Haemophilus influenzae (Haemophilus influenzae): no
Expected efficacy against Salmonella typhi (Salmonella typhi): no
Expected efficacy against Shigella sonnei (Shigella sonnei): no
Expected efficacy against Klebsiella (Calymmato-bacterium) granulomatis [5]: no
Expected efficacy against Yersinia pestis (Yersinia pestis; Gram: neg): no
Expected efficacy against Providencia stuartii (Providencia stuartii): no
Expected efficacy against Campylobacter jejuni (Campylobacter jejuni): no
Expected efficacy against Pseudomonas aeruginosa (Pseudomonas aeruginosa): no
Expected efficacy against Vibrio cholerae (Vibrio cholerae): no
Expected efficacy against Enterobacter sakazakii (Enterobacter sakazakii): no
Expected efficacy against Morganella morganii (Morganella morganii): no
Expected efficacy against Brucella species (Brucella species; Gram: neg): no
Expected efficacy against Klebsiella pneumoniae (Klebsiella pneumoniae): no
Expected efficacy against Clostridium perfringens (Clostridium perfringens; Gram: anaer): no
Expected efficacy against Citrobacter diversus (Citrobacter diversus): no
Expected efficacy against Neisseria meningitidis (Neisseria meningitidis): no
Expected efficacy against Corynebacterium jeikeium (Corynebacterium jeikeium): no
Expected efficacy against Shigella flexneri (Shigella flexneri): no
Expected efficacy against Proteus mirabilis (Proteus mirabilis): no
Expected efficacy against Shigella dysenteriae (Shigella dysenteriae): no
Expected efficacy against Neisseria gonorrhoeae (Neisseria gonorrhoeae): no

CN[C@H](CC(C)C)C(=O)N[C@H]1C(=O)N[C@@H](CC(N)=O)C(=O)N[C@H]2C(=O)N[C@H]3C(=O)N[C@H](C(=O)N[C@H](C(=O)O)c4cc(O)cc(O)c4-c4cc3ccc4O)[C@H](O)c3ccc(c(Cl)c3)Oc3cc2cc(c3O[C@@H]2O[C@H](CO)[C@@H](O)[C@H](O)[C@H]2O[C@H]2C[C@](C)(N)[C@H](O)[C@H](C)O2)Oc2ccc(cc2Cl)[C@H]1O [Vancomycin]
Expected efficacy against Providencia rettgeri (Providencia rettgeri): no
Expected efficacy against Pseudomonas fluorescens (Pseudomonas fluorescens): no
Expected efficacy against Enterococcus faecium (Enterococcus faecium): yes, not VRE
Expected efficacy against Serratia marcescens (Serratia marcescens): no
Expected efficacy against Legionella pneumophila (Legionella pneumophila): no
Expected efficacy against Bordetella pertussis (Bordetella pertussis): no
Expected efficacy against Haemophilus parainfluenzae [2]: no
Expected efficacy against Acinetobacter baumannii (Acinetobacter baumannii): no
Expected efficacy against Francisella tularensis (Francisella tularensis): no
Expected efficacy against Chlamydia psittaci (Chlamydia psittaci): no
Expected efficacy against Mycoplasma pneumoniae (Mycoplasma pneumoniae): no
Expected efficacy against Haemophilus ducreyi (Haemophilus ducreyi): no
Expected efficacy against Acinetobacter calcoaceticus [8]: no
Expected efficacy against Klebsiella oxytoca (Klebsiella oxytoca): no
Expected efficacy against Diphtheroids (Diphtheroids): yes
Expected efficacy against Viridans group streptococci [3]: yes
Expected efficacy against Proteus vulgaris (Proteus vulgaris): no
Expected efficacy against Chlamydia trachomatis (Chlamydia trachomatis): no
Expected efficacy against Rickettsiae (Rickettsiae): no
Expected efficacy against Citrobacter freundii (Citrobacter freundii): no
Expected efficacy against Moraxella catarrhalis (Moraxella catarrhalis): no
Expected efficacy against Acinetobacter lwoffii (Acinetobacter lwoffii): no
Expected efficacy against Clostridium difficile (Clostridium difficile): yes
Expected efficacy against Corynebacterium urealyticum [4]: yes
Expected efficacy against Enterobacter aerogenes (Enterobacter aerogenes): no
Expected efficacy against Enterobacter cloacae (Enterobacter cloacae): no
Expected efficacy against Bartonella bacilliformis (Bartonella bacilliformis): no
Expected efficacy against Shigella boydii (Shigella boydii): no
Expected efficacy against Peptostreptococcus (Peptostreptococcus): yes
Expected efficacy against Escherichia coli (Escherichia coli): no
Expected efficacy against Haemophilus influenzae (Haemophilus influenzae): no
Expected efficacy against Salmonella typhi (Salmonella typhi): no
Expected efficacy against Shigella sonnei (Shigella sonnei): no
Expected efficacy against Streptococcus pyogenes (Streptococcus pyogenes): yes
Expected efficacy against Klebsiella (Calymmato-bacterium) granulomatis [5]: no
Expected efficacy against Yersinia pestis (Yersinia pestis): no
Expected efficacy against Providencia stuartii (Providencia stuartii): no
Expected efficacy against Campylobacter jejuni (Campylobacter jejuni): no
Expected efficacy against Pseudomonas aeruginosa (Pseudomonas aeruginosa): no
Expected efficacy against Streptococcus agalactiae (Streptococcus agalactiae): yes
Expected efficacy against Vibrio cholerae (Vibrio cholerae): no
Expected efficacy against Enterobacter sakazakii (Enterobacter sakazakii): no
Expected efficacy against Morganella morganii (Morganella morganii): no
Expected efficacy against Bacteroides fragilis (Bacteroides fragilis): no
Expected efficacy against Brucella species (Brucella species): no
Expected efficacy against Chlamydia pneumoniae (Chlamydia pneumoniae): no
Expected efficacy against Klebsiella pneumoniae (Klebsiella pneumoniae): no
Expected efficacy against Staphylococcus epidermidis [6]: yes
Expected efficacy against Clostridium perfringens (Clostridium perfringens): no
Expected efficacy against Citrobacter diversus (Citrobacter diversus): no
Expected efficacy against Staphylococcus aureus (MSSA) [7]: yes
Expected efficacy against Neisseria meningitidis (Neisseria meningitidis): no
Expected efficacy against Corynebacterium jeikeium (Corynebacterium jeikeium): yes
Expected efficacy against Shigella flexneri (Shigella flexneri): no
Expected efficacy against Proteus mirabilis (Proteus mirabilis): no
Expected efficacy against Shigella dysenteriae (Shigella dysenteriae): no
Expected efficacy against Neisseria gonorrhoeae (Neisseria gonorrhoeae): no
